Experimental data taken from PubChem BioAssay (NCI).
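Dose response: 5 concentrations. Exposure: 48 h. Format: 96-well plates. Endpoint: linear interpolation; highest concentration if not reached. GI50 = concentration required for 50% inhibition of growth. The concentration for full growth arrest is given as TGI.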

Experiments:
Test in all cases: DTP human tumour cell line panel, 48 h
[1] = test system: 786-0 renal
[2] = test system: A498 renal
[3] = test system: A549 NSCLC
[4] = test system: ACHN renal
[5] = test system: BT-549 breast
[6] = test system: CAKI-1 renal
[7] = test system: CCRF-CEM leukemia
[8] = test system: COLO 205 colon
[9] = test system: DU-145 prostate
[10] = test system: EKVX NSCLC
[11] = test system: HCC-2998 colon
[12] = test system: HCT-116 colon
[13] = test system: HCT-15 colon
[14] = test system: HL-60(TB) leukemia
[15] = test system: HOP-62 NSCLC
[16] = test system: HOP-92 NSCLC
[17] = test system: HS 578T breast
[18] = test system: HT29 colon
[19] = test system: IGROV1 ovarian
[20] = test system: K-562 leukemia
[21] = test system: KM12 colon
[22] = test system: LOX IMVI melanoma
[23] = test system: M14 melanoma
[24] = test system: MALME-3M melanoma
[25] = test system: MCF7 breast
[26] = test system: MDA-MB-231 breast
[27] = test system: MDA-MB-435
[28] = test system: MOLT-4 leukemia
[29] = test system: NCI-H226 lung
[30] = test system: NCI-H23 lung
[31] = test system: NCI-H460 lung
[32] = test system: NCI-H522 lung
[33] = test system: NCI/ADR-RES ovarian
[34] = test system: OVCAR-3 ovarian
[35] = test system: OVCAR-4 ovarian
[36] = test system: OVCAR-5 ovarian
[37] = test system: OVCAR-8 ovarian
[38] = test system: PC-3 prostate
[39] = test system: RPMI-8226 leukemia
[40] = test system: RXF 393 renal
[41] = test system: SF-268 CNS
[42] = test system: SF-295 CNS
[43] = test system: SF-539 CNS
[44] = test system: SK-MEL-2 melanoma
[45] = test system: SK-MEL-28 melanoma
[46] = test system: SK-MEL-5 melanoma
[47] = test system: SK-OV-3 ovarian
[48] = test system: SN12C renal
[49] = test system: SNB-19 CNS
[50] = test system: SNB-75 CNS
[51] = test system: SR leukemia
[52] = test system: SW-620 colon
[53] = test system: T-47D breast
[54] = test system: TK-10 renal
[55] = test system: U251 CNS
[56] = test system: UACC-257 melanoma
[57] = test system: UACC-62 melanoma
[58] = test system: UO-31 renal

## C=C(C)CCC(C)N1CCC(N2CCC(C(=O)NCCc3ccccc3)CC2)CC1 (stereo unspecified)
[1]
  GI50: > 100 µM
  TGI: > 100 µM
[2]
  GI50: 4.55 µM
  TGI: 44.4 µM
[3]
  GI50: 32.2 µM
  TGI: > 100 µM
[4]
  GI50: 17.2 µM
  TGI: 53.8 µM
[5]
  GI50: 12.1 µM
  TGI: > 100 µM
[6]
  GI50: 17.3 µM
  TGI: 75.4 µM
[7]
  GI50: 19.9 µM
  TGI: > 100 µM
[8]
  GI50: 13.4 µM
  TGI: 33.8 µM
[9]
  GI50: > 100 µM
  TGI: > 100 µM
[10]
  GI50: 9.27 µM
  TGI: > 100 µM
[11]
  GI50: 37.9 µM
  TGI: > 100 µM
[12]
  GI50: 16.8 µM
  TGI: > 100 µM
[13]
  GI50: 16.7 µM
  TGI: 57.6 µM
[14]
  GI50: 25.7 µM
  TGI: > 100 µM
[15]
  GI50: 68.9 µM
  TGI: > 100 µM
[16]
  GI50: 13.4 µM
  TGI: 62 µM
[17]
  GI50: 20.4 µM
  TGI: 61.8 µM
[18]
  GI50: 22.1 µM
  TGI: > 100 µM
[19]
  GI50: > 100 µM
  TGI: > 100 µM
[20]
  GI50: 9.9 µM
  TGI: 34.2 µM
[21]
  GI50: 54.6 µM
  TGI: > 100 µM
[22]
  GI50: 15.8 µM
  TGI: 35.5 µM
[23]
  GI50: 15.4 µM
  TGI: 31.1 µM
[24]
  GI50: 11.8 µM
  TGI: 26.9 µM
[25]
  GI50: 19.6 µM
  TGI: > 100 µM
[26]
  GI50: 29.9 µM
  TGI: > 100 µM
[27]
  GI50: 14 µM
  TGI: 28.5 µM
[28]
  GI50: 45.9 µM
  TGI: > 100 µM
[29]
  GI50: 96.6 µM
  TGI: > 100 µM
[30]
  GI50: 31.3 µM
  TGI: > 100 µM
[31]
  GI50: 37.8 µM
  TGI: > 100 µM
[32]
  GI50: 14 µM
  TGI: 54.4 µM
[33]
  GI50: 37.4 µM
  TGI: > 100 µM
[34]
  GI50: 53.7 µM
  TGI: > 100 µM
[35]
  GI50: 5.97 µM
  TGI: 73 µM
[36]
  GI50: 78.9 µM
  TGI: > 100 µM
[37]
  GI50: 27.8 µM
  TGI: > 100 µM
[38]
  GI50: 79.2 µM
  TGI: > 100 µM
[39]
  GI50: 10.1 µM
  TGI: > 100 µM
[40]
  GI50: 14.8 µM
  TGI: 43 µM
[41]
  GI50: 98 µM
  TGI: > 100 µM
[42]
  GI50: 11.9 µM
  TGI: 26.1 µM
[43]
  GI50: 10.5 µM
  TGI: 23.8 µM
[44]
  GI50: 21.3 µM
  TGI: 54.3 µM
[45]
  GI50: 13.2 µM
  TGI: 27.5 µM
[46]
  GI50: 4.2 µM
  TGI: 16.8 µM
[47]
  GI50: 21.2 µM
  TGI: 77.3 µM
[48]
  GI50: 55.5 µM
  TGI: > 100 µM
[49]
  GI50: 58.9 µM
  TGI: > 100 µM
[50]
  GI50: 14.1 µM
  TGI: 44.6 µM
[51]
  GI50: 12.3 µM
  TGI: 82.1 µM
[52]
  GI50: 24.7 µM
  TGI: > 100 µM
[53]
  GI50: 13.4 µM
  TGI: > 100 µM
[54]
  GI50: 18.5 µM
  TGI: 69.3 µM
[55]
  GI50: 14.4 µM
  TGI: 33 µM
[56]
  GI50: 13.5 µM
  TGI: 30.5 µM
[57]
  GI50: 13.7 µM
  TGI: 28.8 µM
[58]
  GI50: 11 µM
  TGI: 25.3 µM
